Experimental data from ChEMBL document CHEMBL5465560, “Selectivity Literature for EUbOPEN Chemogenomic Library” (2024).

Legend:
[1] = target: Serine/threonine-protein kinase mTOR (Homo sapiens, UniProt P42345); assay: Selectivity interaction (KinomeScan (DiscoverX)) EUB0000045b MTOR
[2] = target: T1, Ephrin type-A receptor 6 (Homo sapiens) (UniProt Q9UF33); assay: Selectivity interaction (KinomeScan (DiscoverX)) EUB0001049a EPHA6; details: at 1 µM
T1 sequence (whole entry): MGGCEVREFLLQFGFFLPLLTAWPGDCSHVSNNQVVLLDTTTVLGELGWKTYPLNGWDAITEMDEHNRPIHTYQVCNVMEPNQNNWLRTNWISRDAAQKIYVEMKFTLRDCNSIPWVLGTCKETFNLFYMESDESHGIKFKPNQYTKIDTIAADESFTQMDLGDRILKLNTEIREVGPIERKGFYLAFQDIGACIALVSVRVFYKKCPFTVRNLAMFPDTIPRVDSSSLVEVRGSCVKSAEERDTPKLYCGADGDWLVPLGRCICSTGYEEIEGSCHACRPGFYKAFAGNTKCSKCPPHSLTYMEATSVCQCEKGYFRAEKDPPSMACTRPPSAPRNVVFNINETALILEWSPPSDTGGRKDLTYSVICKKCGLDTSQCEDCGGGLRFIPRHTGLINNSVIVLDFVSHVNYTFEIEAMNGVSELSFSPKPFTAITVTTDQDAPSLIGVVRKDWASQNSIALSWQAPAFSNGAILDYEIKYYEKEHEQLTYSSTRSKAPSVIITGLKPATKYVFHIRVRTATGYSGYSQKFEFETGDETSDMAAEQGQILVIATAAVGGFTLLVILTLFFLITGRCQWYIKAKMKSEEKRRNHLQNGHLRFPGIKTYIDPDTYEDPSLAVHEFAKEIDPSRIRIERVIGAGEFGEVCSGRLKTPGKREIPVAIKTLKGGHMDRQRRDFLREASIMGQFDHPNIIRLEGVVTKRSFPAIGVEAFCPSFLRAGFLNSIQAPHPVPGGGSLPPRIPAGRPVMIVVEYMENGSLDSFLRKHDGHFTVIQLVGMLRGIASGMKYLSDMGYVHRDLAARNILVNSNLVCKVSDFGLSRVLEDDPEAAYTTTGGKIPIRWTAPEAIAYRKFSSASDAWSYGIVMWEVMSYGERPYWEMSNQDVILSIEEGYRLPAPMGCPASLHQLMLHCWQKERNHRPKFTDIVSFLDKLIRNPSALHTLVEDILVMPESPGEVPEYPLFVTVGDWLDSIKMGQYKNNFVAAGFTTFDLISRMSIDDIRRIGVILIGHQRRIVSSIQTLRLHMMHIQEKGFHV

[3] = target: Serine/threonine-protein kinase SIK3 (Homo sapiens) (UniProt Q9Y2K2); assay: Selectivity interaction (KinomeScan (DiscoverX)) EUB0000618a SIK3; details: at 10 µM
Serine/threonine-protein kinase SIK3 (Homo sapiens), sequence (Q9Y2K2 whole entry, looked up): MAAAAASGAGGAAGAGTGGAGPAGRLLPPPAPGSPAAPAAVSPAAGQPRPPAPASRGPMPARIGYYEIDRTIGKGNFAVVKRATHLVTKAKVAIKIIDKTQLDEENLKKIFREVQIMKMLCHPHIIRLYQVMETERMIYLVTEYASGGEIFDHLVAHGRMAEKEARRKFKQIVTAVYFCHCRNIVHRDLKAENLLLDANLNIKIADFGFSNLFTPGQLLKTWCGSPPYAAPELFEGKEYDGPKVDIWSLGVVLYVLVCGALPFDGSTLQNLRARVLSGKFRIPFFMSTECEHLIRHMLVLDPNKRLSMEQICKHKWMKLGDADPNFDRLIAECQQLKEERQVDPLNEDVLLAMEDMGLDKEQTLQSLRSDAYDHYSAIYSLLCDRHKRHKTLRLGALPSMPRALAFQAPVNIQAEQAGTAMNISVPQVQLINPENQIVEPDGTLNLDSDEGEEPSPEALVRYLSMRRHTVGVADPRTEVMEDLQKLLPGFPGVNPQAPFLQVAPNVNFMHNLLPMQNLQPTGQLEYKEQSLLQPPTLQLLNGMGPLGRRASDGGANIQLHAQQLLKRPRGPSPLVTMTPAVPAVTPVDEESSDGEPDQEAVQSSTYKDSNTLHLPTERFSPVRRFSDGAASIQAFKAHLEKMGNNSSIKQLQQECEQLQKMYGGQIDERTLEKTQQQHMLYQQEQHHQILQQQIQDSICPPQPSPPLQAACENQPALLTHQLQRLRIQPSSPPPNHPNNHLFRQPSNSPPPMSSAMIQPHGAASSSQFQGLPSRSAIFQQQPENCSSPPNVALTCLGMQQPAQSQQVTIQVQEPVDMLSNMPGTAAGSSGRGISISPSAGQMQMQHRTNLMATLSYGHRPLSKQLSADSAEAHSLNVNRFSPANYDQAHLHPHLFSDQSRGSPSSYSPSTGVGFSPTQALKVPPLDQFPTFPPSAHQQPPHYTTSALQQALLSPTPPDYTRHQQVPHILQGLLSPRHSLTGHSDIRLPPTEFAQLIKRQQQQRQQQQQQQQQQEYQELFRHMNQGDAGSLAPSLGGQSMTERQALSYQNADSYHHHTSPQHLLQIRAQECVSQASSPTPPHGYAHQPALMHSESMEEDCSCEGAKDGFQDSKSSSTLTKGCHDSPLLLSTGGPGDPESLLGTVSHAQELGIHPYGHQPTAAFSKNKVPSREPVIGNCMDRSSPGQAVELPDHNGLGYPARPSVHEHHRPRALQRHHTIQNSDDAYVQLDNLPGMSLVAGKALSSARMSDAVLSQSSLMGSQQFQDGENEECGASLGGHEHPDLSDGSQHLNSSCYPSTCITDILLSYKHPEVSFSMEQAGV

[4] = target: T2, Mitogen-activated protein kinase kinase kinase 6 (Homo sapiens) (UniProt O95382); assay: Selectivity interaction (ActivX KiNativ screen (kinase selectivity in THP-1 cell lysates)) EUB0000639a MAP3K6; format: subcellular; details: lysate, at 1 µM
T2 sequence (whole entry): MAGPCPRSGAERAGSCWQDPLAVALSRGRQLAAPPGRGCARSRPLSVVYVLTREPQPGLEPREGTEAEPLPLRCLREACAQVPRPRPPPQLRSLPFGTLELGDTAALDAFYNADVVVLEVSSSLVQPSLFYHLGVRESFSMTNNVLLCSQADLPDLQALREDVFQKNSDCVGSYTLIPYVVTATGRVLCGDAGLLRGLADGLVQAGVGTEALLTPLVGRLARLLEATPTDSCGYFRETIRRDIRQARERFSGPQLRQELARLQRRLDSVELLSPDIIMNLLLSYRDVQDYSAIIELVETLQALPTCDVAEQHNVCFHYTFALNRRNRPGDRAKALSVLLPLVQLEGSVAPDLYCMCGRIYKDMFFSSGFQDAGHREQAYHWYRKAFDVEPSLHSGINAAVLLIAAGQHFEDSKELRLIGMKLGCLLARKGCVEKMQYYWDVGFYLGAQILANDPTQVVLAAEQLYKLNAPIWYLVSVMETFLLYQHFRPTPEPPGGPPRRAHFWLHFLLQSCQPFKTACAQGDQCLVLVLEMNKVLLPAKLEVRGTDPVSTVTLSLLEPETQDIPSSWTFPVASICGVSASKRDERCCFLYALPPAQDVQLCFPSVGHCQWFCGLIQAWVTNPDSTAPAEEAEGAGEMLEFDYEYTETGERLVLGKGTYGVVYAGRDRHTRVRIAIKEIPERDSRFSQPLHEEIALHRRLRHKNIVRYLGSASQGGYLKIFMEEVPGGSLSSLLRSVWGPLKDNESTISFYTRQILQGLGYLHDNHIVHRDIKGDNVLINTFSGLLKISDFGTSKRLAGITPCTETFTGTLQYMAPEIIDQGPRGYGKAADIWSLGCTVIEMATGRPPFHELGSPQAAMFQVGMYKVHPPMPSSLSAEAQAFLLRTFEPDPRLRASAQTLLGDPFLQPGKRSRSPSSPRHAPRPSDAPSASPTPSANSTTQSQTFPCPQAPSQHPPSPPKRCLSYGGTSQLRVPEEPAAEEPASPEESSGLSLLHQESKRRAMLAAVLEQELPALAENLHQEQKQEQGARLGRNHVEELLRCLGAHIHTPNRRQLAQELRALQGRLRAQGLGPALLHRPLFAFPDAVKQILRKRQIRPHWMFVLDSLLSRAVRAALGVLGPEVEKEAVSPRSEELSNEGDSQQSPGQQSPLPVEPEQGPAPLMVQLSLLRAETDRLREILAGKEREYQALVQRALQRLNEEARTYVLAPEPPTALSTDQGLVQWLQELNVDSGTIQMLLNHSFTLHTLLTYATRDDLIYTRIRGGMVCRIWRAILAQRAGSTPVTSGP

[5] = target: Tyrosine-protein kinase CSK (Homo sapiens) (UniProt P41240); assay: Selectivity interaction (KinomeScan (DiscoverX)) EUB0000092b CSK; details: at 10 µM
Tyrosine-protein kinase CSK (Homo sapiens), sequence (P41240 2-450 limits assumed): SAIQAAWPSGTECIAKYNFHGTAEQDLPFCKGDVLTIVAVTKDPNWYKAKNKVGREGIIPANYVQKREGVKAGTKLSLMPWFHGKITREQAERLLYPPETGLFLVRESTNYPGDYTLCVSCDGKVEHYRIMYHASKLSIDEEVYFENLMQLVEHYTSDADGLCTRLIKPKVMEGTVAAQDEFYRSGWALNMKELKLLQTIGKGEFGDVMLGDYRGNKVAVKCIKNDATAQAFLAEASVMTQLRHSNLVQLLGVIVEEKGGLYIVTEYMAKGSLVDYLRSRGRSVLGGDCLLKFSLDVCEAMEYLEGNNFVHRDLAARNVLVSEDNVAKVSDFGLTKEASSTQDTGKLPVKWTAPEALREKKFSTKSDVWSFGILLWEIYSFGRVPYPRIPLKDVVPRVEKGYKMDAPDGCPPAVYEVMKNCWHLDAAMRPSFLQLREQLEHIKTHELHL

In the case of `C=CC(=O)Nc1cc(-n2c(=O)ccc3cnc4ccc(-c5ccc(NS(C)(=O)=O)cc5)cc4c32)ccc1C`, the % of control ([1]; at 1 µM) is reported as 45% and the % of control ([1]; at 10 µM) is reported as 0%.

`COc1cc(Nc2nc(C)cc(-c3cnn4nc(OC)ccc34)n2)cc(C(F)(F)F)c1` gave a % of control [2] of 95%.

For `O[C@H]1CC[C@H](Nc2ncc3nc(Nc4c(F)cc(F)cc4F)n([C@H]4CCOC4)c3n2)CC1`, the % of control [3] was 22%.

Compound `CC[C@@H]1[C@H](F)C(=O)N[C@@H]1COc1nccc2cc(C(N)=O)c(OC)cc12` [ZIMLOVISERTIB] has a % of inhibition [4] of -16.4%.

`CCC(=O)N1CCN(c2ccc(-n3c(=O)ccc4cnc5ccc(-c6cnc7ccccc7c6)cc5c43)cc2C(F)(F)F)CC1` gave a % of control [5] of 71%.
